How the values were obtained:
Assay in all cases: relative viability (nuclei count vs DMSO), 5 days (fraction); higher = more cells survive
Pemetrexed + Luminespib = compound: Nc1nc2[nH]cc(CCc3ccc(C(=O)N[C@@H](CCC(=O)O)C(=O)O)cc3)c2c(=O)[nH]1 [Pemetrexed] + CCNC(=O)c1noc(-c2cc(C(C)C)c(O)cc2O)c1-c1ccc(CN2CCOCC2)cc1 [Luminespib] (partner 0.01 µM)
Summary of the method: (§1)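 Lung cancer cell lines were pin-tool dosed in 1536-well plates on the day after seeding, with either a lone drug or a fixed anchor-drug dose plus five library-drug doses (not always all listed) in √10 steps. Nuclei were counted on 4× images after 5 days. Relative viability is the ratio of treated-well to vehicle-well nuclei counts, with each value a median of duplicate plates.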

Pemetrexed + Bortezomib = compound: Nc1nc2[nH]cc(CCc3ccc(C(=O)N[C@@H](CCC(=O)O)C(=O)O)cc3)c2c(=O)[nH]1 [Pemetrexed] + CC(C)C[C@H](NC(=O)[C@H](Cc1ccccc1)NC(=O)c1cnccn1)B(O)O [Bortezomib] (partner 0.002 µM)
Summary of the method: as §1

Pemetrexed + Trametinib = compound: Nc1nc2[nH]cc(CCc3ccc(C(=O)N[C@@H](CCC(=O)O)C(=O)O)cc3)c2c(=O)[nH]1 [Pemetrexed] + CC(=O)Nc1cccc(-n2c(=O)n(C3CC3)c(=O)c3c(Nc4ccc(I)cc4F)n(C)c(=O)c(C)c32)c1 [Trametinib] (partner 0.02 µM)
Summary of the method: as §1

Idelalisib + Alpelisib = compound: CC[C@H](Nc1ncnc2[nH]cnc12)c1nc2cccc(F)c2c(=O)n1-c1ccccc1 [Idelalisib] + Cc1nc(NC(=O)N2CCC[C@H]2C(N)=O)sc1-c1ccnc(C(C)(C)C(F)(F)F)c1 [Alpelisib] (partner 2 µM)
Summary of the method: as §1

Cell Line | relative viability (Pemetrexed + Luminespib; first compound 0.002 µM) | relative viability (Pemetrexed + Luminespib; first compound 0.006325 µM) | relative viability (Pemetrexed + Luminespib; first compound 0.02 µM) | relative viability (Pemetrexed + Luminespib; first compound 0.06325 µM) | relative viability (Pemetrexed + Luminespib; first compound 0.2 µM) | relative viability (Pemetrexed + Bortezomib; first compound 0.002 µM) | relative viability (Pemetrexed + Bortezomib; first compound 0.006325 µM) | relative viability (Pemetrexed + Bortezomib; first compound 0.02 µM) | relative viability (Pemetrexed + Bortezomib; first compound 0.06325 µM) | relative viability (Pemetrexed + Bortezomib; first compound 0.2 µM) | relative viability (Pemetrexed + Trametinib; first compound 0.002 µM) | relative viability (Pemetrexed + Trametinib; first compound 0.006325 µM) | relative viability (Pemetrexed + Trametinib; first compound 0.02 µM) | relative viability (Pemetrexed + Trametinib; first compound 0.06325 µM) | relative viability (Pemetrexed + Trametinib; first compound 0.2 µM) | relative viability (Idelalisib + Alpelisib; first compound 0.04 µM) | relative viability (Idelalisib + Alpelisib; first compound 0.1265 µM) | relative viability (Idelalisib + Alpelisib; first compound 0.4 µM) | relative viability (Idelalisib + Alpelisib; first compound 1.265 µM) | relative viability (Idelalisib + Alpelisib; first compound 4 µM)
PC-14 | 0.15 | 0.133 | 0.151 | 0.136 | 0.137 | 0.873 | 0.85 | 0.808 | 0.544 | 0.188 | 0.681 | 0.651 | 0.805 | 0.198 | 0.123 | 0.992 | 0.882 | 0.874 | 0.983 | 0.9
NCI-H1666 | 1 | 0.942 | 1.01 | 1.01 | 0.839 | 0.682 | 0.752 | 0.875 | 0.766 | 0.421 | 0.845 | 0.826 | 0.926 | 0.873 | 0.784 | 1.03 | 0.909 | 0.89 | 0.888 | 0.747
COR-L 105 | 0.77 | 0.834 | 0.673 | 0.862 | 0.729 | 0.842 | 0.704 | 1.05 | 0.924 | 0.783 | 0.442 | 0.423 | 0.47 | 0.479 | 0.453 | 1.05 | 1.08 | 0.855 | 0.83 | 0.586
LU99A | 0.264 | 0.233 | 0.318 | 0.261 | 0.19 | 1.05 | 1.09 | 1.17 | 0.952 | 0.948 | 0.496 | 0.451 | 0.572 | 0.467 | 0.538 | 0.665 | 0.479 | 0.36 | 0.554 | 0.45
NCI-H596 | 0.97 | 1.01 | 1.14 | 0.945 | 0.679 | 1.22 | 0.869 | 1.14 | 0.851 | 0.71 | 0.886 | 0.869 | 0.663 | 0.643 | 0.5 | 0.597 | 0.397 | 0.483 | 0.467 | 0.364
201T | 1.03 | 1.04 | 1.05 | 1.1 | 1.09 | 1.05 | 1.11 | 1.12 | 1.09 | 1.03 | 0.745 | 0.713 | 0.706 | 0.735 | 0.724 | 0.974 | 0.987 | 0.937 | 0.963 | 0.872
HCC-15 | 0.454 | 0.391 | 0.475 | 0.406 | 0.23 | 0.916 | 0.995 | 1.12 | 1.02 | 0.562 | 0.371 | 0.344 | 0.392 | 0.336 | 0.218 | 1.07 | 0.884 | 0.794 | 0.912 | 0.83

— the supplement of paper PMC10307832
